Measurements as given in patent US12310975B2, “Modulators of BCL6 proteolysis and associated methods of use” (Arvinas Operations, Inc., priority 2019, dated 2025).

Each compound was assayed against BCL6 (Homo sapiens (Human), UniProt P41182) (assay: Immunofluorescence high content imaging of BCL6 degradation in T47D cells). Conditions: class symbols A-D, read-out: EC50 (nM)*.
Format: cell-based
Protocol: Immunofluorescence Protocol for High Cotent Imaging of BCL6
T47D cells were seeded in 100 μl volume of RPMI1640-10% FBS in a 96-well black/clear bottom plates for adherent lines (Corning #3904).
Day 1. T47D breast cancer epithelial cells were seeded at a density so that confluence is ˜70-90% at endpoint. Cells were seeded at 7K/0.1 ml/well the morning prior to the addition of exemplary bifunctional degradation compounds.
Day 2. Prepare an 11 point 3-fold serial dilution of exemplary bifunctional compound in DMSO and aliquot an appropriate volume to cell growth media to generate a 2× final concentration of exemplary bifunctional compound. Add an equal volume (0.1 ml) of 2× exemplary bifunctional compound/media mix to previously plated cells, for a final top concentration in aqueous cell growth media of 0.1 or 1 μM. Incubate for 3 days at 37° C., 5% CO2.
Day 5 Immunofluorescence. Discard cell media. Wash wells with 200 μl of room temperature phosphate-buffered saline (PBS). Prepared 4% paraformaldehyde (PFA) from 16% PFA (Electron Microscopy Sciences #15710) using 1×PBS. Fifty μl of 4% PF was added to each well and incubate for 15 minutes at room temperature to fix the cells. The PFA was aspirated and the cells washed twice with PBS (200 μl)).
Prepared 0.1% Triton X-100 in PBS using 10% triton X-100 stock. The cells were permeabilized by adding 100 ul of the 0.1% Triton X-100 in PBS to each well to permeabilize cells and incubating at room temperature for 15 minutes. Cells were washed twice with PBS.
Prepared 3% BSA/PBS (from Thermofisher #37515 Blocker BSA in TBS, 10%), and 100 ul was added to each well. The cells were incubated for at least 1 hour at room temperature.
Prepared 1% BSA/PBS using Blocker BSA/PBS, and the 3% BSA/PBS removed from the wells.
For no primary antibody controls, 50 μl 1% BSA/PBS was added.
Primary antibody (BCL6 Rb Ab, CST-14895, Cell Signaling) was diluted 1:300 in 1% BSA/PBS using Blocker BSA/PBS.
Fifty μl of primary antibody added to all remaining wells (i.e., all wells other than the primary antibody controls) and the cells were incubated overnight at 4° C. with slow orbital movement.
Day 6. Contents of the wells was removed and the cells washed four times with 200 ul PBS. 1% BSA/PBS was prepared using Blocker BSA in PBS.
Diluted secondary antibody goat anti-Rb IgG Alexa-488 1:1000, and cell mask-Alexa-647 1:3000 in 1% BSA/PBS in the same mix. Add 50 μl to each well and incubate at room temperature for 1 hour in the dark.
Cells were washed three times with 200 ul PBS, and then incubated for 10 minutes with 100 ul Hoechst dye at 1 μg/mL (20 mM stock) to stain cell nuclei. Wells were then washed with 200 μl PBS, and 100 ul of PBS was added to each well and the plate covered plate with a plastic opaque cover. Plates were stored at 4° C. and covered in aluminum foil until imaged.
Plates were equilibrated to room temperature prior to reading. The bottom of the plate was wiped with 70% isopropanol immediately prior to imaging.
10×, 4 fields/well, include Top hat smoothing in the analysis protocol.

| Structure (SMILES) | DC50 [nM] |
| --- | --- |
| CN1C(=O)CCc2cc(Nc3cc(OC4CCN(C(=O)COCCOc5ccc6c(c5)C(=O)N(C5CCC(=O)NC5=O)C6=O)CC4)c([N+](=O)[O-])cc3Cl)ccc21 (stereo not shown) [compound 76, 5-(2-(2-(4-(4-chloro-5-((1-methyl-2-oxo-1,2,3,4-tetrahydroquinolin-6-yl)amino)-2-nitrophenoxy)piperidin-1-yl)-2-oxoethoxy)ethoxy)-2-(2,6-dioxopiperidin-3-yl)isoindoline-1,3-dione] | > 100 |
| CN1C(=O)CCc2cc(Nc3cc(N4CCC(CN5CCN(c6ccc7c(c6)C(=O)N(C6CCC(=O)NC6=O)C7=O)CC5)CC4)c([N+](=O)[O-])cc3Cl)ccc21 (stereo not shown) [compound 77, 5-(4-((1-(4-chloro-5-((1-methyl-2-oxo-1,2,3,4-tetrahydroquinolin-6-yl)amino)-2-nitrophenyl)piperidin-4-yl)methyl)piperazin-1-yl)-2-(2,6-dioxopiperidin-3-yl)isoindoline-1,3-dione] | > 100 |
| CN1C(=O)CCc2cc(Nc3cc(OC4CCN(C5CCN(c6ccc7c(c6)C(=O)N(C6CCC(=O)NC6=O)C7=O)CC5)CC4)c([N+](=O)[O-])cc3Cl)ccc21 (stereo not shown) [compound 79, 5-(4-(4-chloro-5-((1-methyl-2-oxo-1,2,3,4-tetrahydroquinolin-6-yl)amino)-2-nitrophenoxy)-[1,4′-bipiperidin]-1′-yl)-2-(2,6-dioxopiperidin-3-yl)isoindoline-1,3-dione] | > 100 |
| CNC(=O)COc1cc2cc(Nc3nc(N4CCC(OCCOCCOCCOCCOCCOCCNc5cccc6c5C(=O)N(C5CCC(=O)NC5=O)C6=O)CC4)ncc3Cl)ccc2n(C)c1=O (stereo not shown) [compound 81, 2-((6-((5-chloro-2-(4-((17-((2-(2,6-dioxopiperidin-3-yl)-1,3-dioxoisoindolin-4-yl)amino)-3,6,9,12,15-pentaoxaheptadecyl)oxy)piperidin-1-yl)pyrimidin-4-yl)amino)-1-methyl-2-oxo-1,2-dihydroquinolin-3-yl)oxy)-N-methylacetamide] | > 100 |
| CN1C(=O)CCc2cc(Nc3cc(N4CCC(CN(C)[C@H]5C[C@H](Oc6ccc7c(c6)C(=O)N(C6CCC(=O)NC6=O)C7=O)C5)CC4)c([N+](=O)[O-])cc3Cl)ccc21 (stereo partly shown) [compound 85, 5-((1r,3r)-3-(((1-(4-chloro-5-((1-methyl-2-oxo-1,2,3,4-tetrahydroquinolin-6-yl)amino)-2-nitrophenyl)piperidin-4-yl)methyl)(methyl)amino)cyclobutoxy)-2-(2,6-dioxopiperidin-3-yl)isoindoline-1,3-dione] | > 100 |

Next, values leading:

| DC50 [nM] | Structure (SMILES) |
| --- | --- |
| 50 to 100 | CNC(=O)COc1cc2cc(Nc3nc(N4CCC(OCCOCCNc5cccc6c5C(=O)N(C5CCC(=O)NC5=O)C6=O)CC4)ncc3Cl)ccc2n(C)c1=O (stereo not shown) [compound 75, 2-((6-((5-chloro-2-(4-(2-(2-((2-(2,6-dioxopiperidin-3-yl)-1,3-dioxoisoindolin-4-yl)amino)ethoxy)ethoxy)piperidin-1-yl)pyrimidin-4-yl)amino)-1-methyl-2-oxo-1,2-dihydroquinolin-3-yl)oxy)-N-methylacetamide] |
| 10 to 50 | CNC(=O)COc1cc2cc(Nc3nc(N4CCC(OCCOCCOCCOCCOCC(=O)N[C@H](C(=O)N5C[C@H](O)C[C@H]5C(=O)NCc5ccc(-c6scnc6C)cc5)C(C)(C)C)CC4)ncc3Cl)ccc2n(C)c1=O [compound 78, (2S,4R)-1-((S)-2-(tert-butyl)-17-((1-(5-chloro-4-((1-methyl-3-(2-(methylamino)-2-oxoethoxy)-2-oxo-1,2-dihydroquinolin-6-yl)amino)pyrimidin-2-yl)piperidin-4-yl)oxy)-4-oxo-6,9,12,15-tetraoxa-3-azaheptadecanoyl)-4-hydroxy-N-(4-(4-methylthiazol-5-yl)benzyl)pyrrolidine-2-carboxamide] |
| 50 to 100 | CNC(=O)COc1cc2cc(Nc3nc(N4CCC(OCCNc5cccc6c5C(=O)N(C5CCC(=O)NC5=O)C6=O)CC4)ncc3Cl)ccc2n(C)c1=O (stereo not shown) [compound 80, 2-((6-((5-chloro-2-(4-(2-((2-(2,6-dioxopiperidin-3-yl)-1,3-dioxoisoindolin-4-yl)amino)ethoxy)piperidin-1-yl)pyrimidin-4-yl)amino)-1-methyl-2-oxo-1,2-dihydroquinolin-3-yl)oxy)-N-methylacetamide] |
| 50 to 100 | CNC(=O)COc1cc2cc(Nc3nc(N4CCC(OCCOCCOCCOCCOCCOCC(=O)N[C@H](C(=O)N5C[C@H](O)C[C@H]5C(=O)NCc5ccc(-c6scnc6C)cc5)C(C)(C)C)CC4)ncc3Cl)ccc2n(C)c1=O [compound 82, (2S,4R)-1-((S)-2-(tert-butyl)-20-((1-(5-chloro-4-((1-methyl-3-(2-(methylamino)-2-oxoethoxy)-2-oxo-1,2-dihydroquinolin-6-yl)amino)pyrimidin-2-yl)piperidin-4-yl)oxy)-4-oxo-6,9,12,15,18-pentaoxa-3-azaicosanoyl)-4-hydroxy-N-(4-(4-methylthiazol-5-yl)benzyl)pyrrolidine-2-carboxamide] |
| 50 to 100 | CNC(=O)COc1cc2cc(Nc3nc(N4CCC(OCCOCCOCCOCCOCCOCCOCC(=O)N[C@H](C(=O)N5C[C@H](O)C[C@H]5C(=O)NCc5ccc(-c6scnc6C)cc5)C(C)(C)C)CC4)ncc3Cl)ccc2n(C)c1=O [compound 83, (2S,4R)-1-((S)-2-(tert-butyl)-23-((1-(5-chloro-4-((1-methyl-3-(2-(methylamino)-2-oxoethoxy)-2-oxo-1,2-dihydroquinolin-6-yl)amino)pyrimidin-2-yl)piperidin-4-yl)oxy)-4-oxo-6,9,12,15,18,21-hexaoxa-3-azatricosanoyl)-4-hydroxy-N-(4-(4-methylthiazol-5-yl)benzyl)pyrrolidine-2-carboxamide] |
| 10 to 50 | CNC(=O)COc1cc2cc(Nc3nc(N4CCC(OCCOCCOCCOCCOCCOc5ccc6c(c5)CN(C5(C)CCC(=O)NC5=O)C6=O)CC4)ncc3Cl)ccc2n(C)c1=O (stereo not shown) [compound 84, 2-((6-((5-chloro-2-(4-((14-((2-(3-methyl-2,6-dioxopiperidin-3-yl)-1-oxoisoindolin-5-yl)oxy)-3,6,9,12-tetraoxatetradecyl)oxy)piperidin-1-yl)pyrimidin-4-yl)amino)-1-methyl-2-oxo-1,2-dihydroquinolin-3-yl)oxy)-N-methylacetamide] |
| 50 to 100 | CNC(=O)COc1cc2cc(Nc3nc(N4CCC(OCCOCC(=O)N[C@H](C(=O)N5C[C@H](O)C[C@H]5C(=O)NCc5ccc(-c6scnc6C)cc5)C(C)(C)C)CC4)ncc3Cl)ccc2n(C)c1=O [compound 86, (2S,4R)-1-((S)-2-(2-(2-((1-(5-chloro-4-((1-methyl-3-(2-(methylamino)-2-oxoethoxy)-2-oxo-1,2-dihydroquinolin-6-yl)amino)pyrimidin-2-yl)piperidin-4-yl)oxy)ethoxy)acetamido)-3,3-dimethylbutanoyl)-4-hydroxy-N-(4-(4-methylthiazol-5-yl)benzyl)pyrrolidine-2-carboxamide] |
| 50 to 100 | CNC(=O)COc1cc2cc(Nc3nc(N4CCC(OCCOCCOCCOCCOCCOc5ccc6c(c5)CN(C5CCC(=O)N(C)C5=O)C6=O)CC4)ncc3Cl)ccc2n(C)c1=O (stereo not shown) [compound 87, 2-((6-((5-chloro-2-(4-((14-((2-(1-methyl-2,6-dioxopiperidin-3-yl)-1-oxoisoindolin-5-yl)oxy)-3,6,9,12-tetraoxatetradecyl)oxy)piperidin-1-yl)pyrimidin-4-yl)amino)-1-methyl-2-oxo-1,2-dihydroquinolin-3-yl)oxy)-N-methylacetamide] |
